How the values were obtained:
Assay type in all cases: in vivo
[1] = system: Diabrotica Balteata (Corn Root Worm); test: Example B4: Activity against Diabrotica balteata, sprayed maize sprouts; details: 96 h, application rate 200 ppm, L2 larvae, 4 days after infestation, read-out: effect in at least one of the two categories (mortality or growth inhibition)
Method: Example B4: Activity Against Diabrotica Balteata (Corn Root Worm)
Maize sprouts, placed on an agar layer in 24-well microtiter plates were treated with aqueous test solutions prepared from 10′000 ppm DMSO stock solutions by spraying. After drying, the plates were infested with L2 larvae (6 to 10 per well). The samples were assessed for mortality and growth inhibition in comparison to untreated samples 4 days after infestation.

[2] = system: Euschistus heros (Neotropical Brown Stink Bug); test: Example B7: Activity against Euschistus heros, sprayed soybean leaf; details: 120 h, application rate 200 ppm, N-2 nymphs, 5 days after infestation
Method: Example B7: Activity Against Euschistus heros (Neotropical Brown Stink Bug)
Soybean leaf on agar in 24-well microtiter plates were sprayed with aqueous test solutions prepared from 10′000 ppm DMSO stock solutions. After drying the leaf were infested with N-2 nymphs. The samples were assessed for mortality 5 days after infestation.

[3] = system: Spodoptera littoralis (Egyptian Cotton Leaf Worm); test: Example B2: Activity against Spodoptera littoralis, systemic via lettuce roots in agar; details: 144 h, application rate 12.5 ppm, 6 days after infestation, read-out: control in at least one of the three categories (mortality, anti-feedancy or growth inhibition)
Source text: Example B2: Activity Against Spodoptera littoralis (Egyptian Cotton Leaf Worm)
Test compounds were applied by pipette from 10′000 ppm DMSO stock solutions into 24-well plates and mixed with agar. Lettuce seeds were placed on the agar and the multi well plate was closed by another plate which contains also agar. After 7 days the roots have absorbed the compound and the lettuce has grown into the lid plate. The lettuce leafs were now cut off into the lid plate. Spodoptera eggs were pipetted through a plastic stencil on a humid gel blotting paper and the plate closed with it.
The samples were assessed for mortality, anti-feedant effect and growth inhibition in comparison to untreated samples 6 days after infestation.

[4] = system: Plutella xylostella (Diamond Back Moth); test: Example B3: Activity against Plutella xylostella, artificial diet; details: 120 h, application rate 200 ppm, L2 larvae, 5 days after infestation, read-out: effect in at least one of the two categories (mortality or growth inhibition)
Method: Example B3: Activity Against Plutella xylostella (Diamond Back Moth)
24-well microtiter plates with artificial diet were treated with aqueous test solutions prepared from 10′000 ppm DMSO stock solutions by pipetting. After drying, the plates were infested with L2 larvae (10 to 15 per well). The samples were assessed for mortality and growth inhibition in comparison to untreated samples 5 days after infestation.

[5] = system: Myzus persicae (Green Peach Aphid); test: Example B8: Activity against Myzus persicae, sprayed sunflower leaf discs; details: foliar, 144 h, application rate 200 ppm, aphid population of mixed ages, 6 days after infestation
Method: Example B8: Activity Against Myzus persicae (Green Peach Aphid)
Sunflower leaf discs were placed on agar in a 24-well microtiter plate and sprayed with aqueous test solutions prepared from 10′000 ppm DMSO stock solutions. After drying, the leaf discs were infested with an aphid population of mixed ages. The samples were assessed for mortality 6 days after infestation.

[6] = system: Bemisia tabaci (Cotton White Fly); test: Example B6: Activity against Bemisia tabaci, sprayed cotton leaf discs; details: foliar, 144 h, application rate 200 ppm, adult white flies, 6 days after incubation
Method: Example B6: Activity Against Bemisia tabaci (Cotton White Fly)
Cotton leaf discs were placed on agar in 24-well microtiter plates and sprayed with aqueous test solutions prepared from 10′000 ppm DMSO stock solutions. After drying the leaf discs were infested with adult white flies. The samples were checked for mortality 6 days after incubation.

[7] = system: Spodoptera littoralis (Egyptian Cotton Leaf Worm); test: Example B1: Activity against Spodoptera littoralis, sprayed cotton leaf discs; details: foliar, 72 h, application rate 200 ppm, L1 larvae, 3 days after infestation, read-out: control in at least one of the three categories (mortality, anti-feedancy or growth inhibition)
Procedure, shortened: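 Cotton leaf discs on agar were sprayed with aqueous dilutions of 10′000 ppm DMSO stocks, dried, and infested with five L1 larvae. Mortality, anti-feedant effect and growth inhibition were scored 3 days after infestation against untreated discs. Control means at least one of these exceeds the untreated sample.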

[8] = system: Tetranychus urticae (Two-Spotted Spider Mite); test: Example B12: Activity against Tetranychus urticae, sprayed bean leaf discs; details: foliar, 192 h, application rate 200 ppm, mixed population (mobile stages), 8 days after infestation
Method: Example B12: Activity Against Tetranychus urticae (Two-Spotted Spider Mite)
Bean leaf discs on agar in 24-well microtiter plates were sprayed with aqueous test solutions prepared from 10′000 ppm DMSO stock solutions. After drying the leaf discs were infested with a mite population of mixed ages. The samples were assessed for mortality on mixed population (mobile stages) 8 days after infestation.

[9] = system: Myzus persicae (Green Peach Aphid); test: Example B9: Activity against Myzus persicae, systemic via pea seedling roots; details: 144 h, test rate 24 ppm, pea seedling roots in test solution, 6 days
Method: Example B9: Activity Against Myzus persicae (Green Peach Aphid)
Roots of pea seedlings infested with an aphid population of mixed ages were placed directly in the aqueous test solutions prepared from 10′000 DMSO stock solutions. The samples were assessed for mortality 6 days after placing seedlings in test solutions.

CCS(=O)(=O)c1cc(-c2cc(C#N)ccn2)cnc1C(=O)N(C)c1nnc(C(F)(F)F)s1 [Compound P61]
≥ 80%: percent effect (mortality or growth inhibition) at 200 ppm [1] | mortality at 200 ppm [2] | percent control (mortality, anti-feedant effect or growth inhibition) at 12.5 ppm [3] | percent effect (mortality or growth inhibition) at 200 ppm [4] | mortality at 200 ppm [5] | mortality at 200 ppm [6] | percent control (mortality, anti-feedant effect or growth inhibition) at 200 ppm [7] | mortality at 200 ppm [8]

CCS(=O)(=O)c1cc(-c2cc(F)ccc2F)cnc1C(=O)N(C)c1nnc(C(F)(F)F)s1 [Compound P33]
≥ 80%: percent effect (mortality or growth inhibition) at 200 ppm [1] | mortality at 200 ppm [2] | percent control (mortality, anti-feedant effect or growth inhibition) at 12.5 ppm [3] | percent effect (mortality or growth inhibition) at 200 ppm [4] | mortality at 200 ppm [5] | mortality at 200 ppm [6] | percent control (mortality, anti-feedant effect or growth inhibition) at 200 ppm [7] | mortality at 200 ppm [8]

CCS(=O)(=O)c1cc(-c2cncnc2)cnc1C(=O)N(C)c1nnc(C(F)(F)F)s1 [Compound P58]
≥ 80%: percent effect (mortality or growth inhibition) at 200 ppm [4] | mortality at 200 ppm [5] | mortality at 24 ppm [9]

Reference: patent publication US10590123B2, “Pesticidally active amide heterocyclic derivatives with sulphur containing substituents” (SYNGENTA PARTICIPATIONS AG, priority 2014, dated 2020)
